Results reported in PubChem BioAssay (NCI).
Where “and” joins values, the source holds several entries; their conditions need not be identical. Equal entries are not always repeated.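 Briefly, cells in 96-well plates were exposed to five compound concentrations for 48 h, and endpoints were estimated by linear interpolation. GI50 marks 50% less growth. Definition used: TGI = concentration required for complete inhibition of growth.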

Key:
Test in all cases: NCI-60 cell line screen, 48 h
SR leukemia = tested on: SR leukemia
SNB-75 CNS = tested on: SNB-75 CNS
EKVX NSCLC = tested on: EKVX NSCLC
SF-268 CNS = tested on: SF-268 CNS
PC-3 prostate = tested on: PC-3 prostate
CAKI-1 renal = tested on: CAKI-1 renal
MDA-MB-231 breast = tested on: MDA-MB-231 breast
LOX IMVI melanoma = tested on: LOX IMVI melanoma
K-562 leukemia = tested on: K-562 leukemia
SF-539 CNS = tested on: SF-539 CNS
KM12 colon = tested on: KM12 colon
RXF 393 renal = tested on: RXF 393 renal
OVCAR-4 ovarian = tested on: OVCAR-4 ovarian
DU-145 prostate = tested on: DU-145 prostate
OVCAR-3 ovarian = tested on: OVCAR-3 ovarian
HCC-2998 colon = tested on: HCC-2998 colon
COLO 205 colon = tested on: COLO 205 colon
SW-620 colon = tested on: SW-620 colon
SNB-19 CNS = tested on: SNB-19 CNS
NCI/ADR-RES ovarian = tested on: NCI/ADR-RES ovarian
T-47D breast = tested on: T-47D breast
OVCAR-5 ovarian = tested on: OVCAR-5 ovarian
U251 CNS = tested on: U251 CNS
HCT-15 colon = tested on: HCT-15 colon
NCI-H522 lung = tested on: NCI-H522 lung
A498 renal = tested on: A498 renal
HS 578T breast = tested on: HS 578T breast
786-0 renal = tested on: 786-0 renal
M14 melanoma = tested on: M14 melanoma
RPMI-8226 leukemia = tested on: RPMI-8226 leukemia
UACC-62 melanoma = tested on: UACC-62 melanoma
SK-MEL-28 melanoma = tested on: SK-MEL-28 melanoma
OVCAR-8 ovarian = tested on: OVCAR-8 ovarian
SK-MEL-2 melanoma = tested on: SK-MEL-2 melanoma
TK-10 renal = tested on: TK-10 renal
MDA-MB-435 = tested on: MDA-MB-435
SF-295 CNS = tested on: SF-295 CNS
SK-MEL-5 melanoma = tested on: SK-MEL-5 melanoma
UACC-257 melanoma = tested on: UACC-257 melanoma
UO-31 renal = tested on: UO-31 renal
HOP-62 NSCLC = tested on: HOP-62 NSCLC
NCI-H23 lung = tested on: NCI-H23 lung
HOP-92 NSCLC = tested on: HOP-92 NSCLC
IGROV1 ovarian = tested on: IGROV1 ovarian
SN12C renal = tested on: SN12C renal
SK-OV-3 ovarian = tested on: SK-OV-3 ovarian
CCRF-CEM leukemia = tested on: CCRF-CEM leukemia
MALME-3M melanoma = tested on: MALME-3M melanoma
A549 NSCLC = tested on: A549 NSCLC
MCF7 breast = tested on: MCF7 breast
ACHN renal = tested on: ACHN renal
HCT-116 colon = tested on: HCT-116 colon
BT-549 breast = tested on: BT-549 breast
HL-60(TB) leukemia = tested on: HL-60(TB) leukemia
NCI-H226 lung = tested on: NCI-H226 lung
NCI-H460 lung = tested on: NCI-H460 lung
HT29 colon = tested on: HT29 colon
MOLT-4 leukemia = tested on: MOLT-4 leukemia

COc1ccc([C@@]23Oc4cc(OC)cc(OC)c4[C@]2(O)[C@H](O)[C@H](C(=O)N(C)C)[C@H]3c2ccccc2)cc1
GI50 (SR leukemia): 16 nM
GI50 (SNB-75 CNS): 14.9 nM
TGI (EKVX NSCLC): 220 nM and 170 nM
GI50 (SF-268 CNS): 15.2 nM
GI50 (PC-3 prostate): 17.3 nM
GI50 (CAKI-1 renal): 21.8 nM
TGI (CAKI-1 renal): 225 nM and 692 nM and 262 nM
GI50 (MDA-MB-231 breast): 23.1 nM
TGI (MDA-MB-231 breast): 49 nM and 9.49 nM and 75.6 nM
TGI (LOX IMVI melanoma): 18.9 nM and 22.5 nM
GI50 (K-562 leukemia): 3.34 nM
TGI (K-562 leukemia): 25000 nM and > 100000 nM
TGI (SF-539 CNS): 5.12 nM and 15.4 nM
TGI (KM12 colon): 89.2 nM and 281 nM
GI50 (RXF 393 renal): 17.8 nM
TGI (RXF 393 renal): 82.3 nM and 26.2 nM and 78.5 nM
GI50 (OVCAR-4 ovarian): 14.9 nM
GI50 (DU-145 prostate): 13.5 nM
TGI (DU-145 prostate): 63.5 nM and 37.5 nM and 219 nM
GI50 (OVCAR-3 ovarian): 16.4 nM
TGI (HCC-2998 colon): 61.5 nM and 224 nM
TGI (COLO 205 colon): 19.7 nM
TGI (SW-620 colon): 1020 nM and 260 nM and 244 nM
GI50 (SNB-19 CNS): 11.3 nM
TGI (SNB-19 CNS): 1370 nM and 159 nM
GI50 (NCI/ADR-RES ovarian): 7.7 nM and 56.6 nM
TGI (NCI/ADR-RES ovarian): 442 nM and 329 nM and 1550 nM
TGI (T-47D breast): 44 nM and 5.2 nM
GI50 (OVCAR-5 ovarian): 11.6 nM
TGI (OVCAR-5 ovarian): 62.6 nM and 69.4 nM and 41.7 nM
GI50 (U251 CNS): 15.7 nM
GI50 (HCT-15 colon): 15 nM
GI50 (NCI-H522 lung): 17.9 nM
GI50 (A498 renal): 15.5 nM
TGI (A498 renal): 23.4 nM and 7.19 nM and 40.3 nM
GI50 (HS 578T breast): 22.5 nM
GI50 (786-0 renal): 28.7 nM
TGI (786-0 renal): 159 nM and 33.3 nM and 215 nM
TGI (M14 melanoma): 14 nM
GI50 (RPMI-8226 leukemia): 16.4 nM
GI50 (UACC-62 melanoma): 24.3 nM
GI50 (SK-MEL-28 melanoma): 13.4 nM
TGI (SK-MEL-28 melanoma): 61.6 nM and 29.2 nM and 49.2 nM
GI50 (OVCAR-8 ovarian): 20.8 nM
TGI (OVCAR-8 ovarian): 244 nM and 236 nM and 488 nM
GI50 (SK-MEL-2 melanoma): 22.5 nM
TGI (SK-MEL-2 melanoma): 93.8 nM and 11.2 nM and 70.9 nM
GI50 (TK-10 renal): 48.4 nM
TGI (TK-10 renal): 53.1 nM and 150 nM and 435 nM
TGI (MDA-MB-435): 43.4 nM and 18.8 nM and 150 nM
GI50 (SF-295 CNS): 12.4 nM
TGI (SF-295 CNS): 43.3 nM and 86.7 nM
GI50 (SK-MEL-5 melanoma): 22.7 nM
TGI (SK-MEL-5 melanoma): 14.4 nM and 139 nM
GI50 (UACC-257 melanoma): 30.9 nM
GI50 (UO-31 renal): 21.4 nM
GI50 (HOP-62 NSCLC): 15.2 nM
GI50 (NCI-H23 lung): 15.2 nM
GI50 (HOP-92 NSCLC): 30.4 nM
TGI (HOP-92 NSCLC): 74.1 nM and 400 nM
GI50 (IGROV1 ovarian): 24.8 nM
GI50 (SN12C renal): 19.2 nM
TGI (SN12C renal): 329 nM and 66.4 nM and 186 nM
GI50 (SK-OV-3 ovarian): 15.7 nM
GI50 (CCRF-CEM leukemia): 18.5 nM
GI50 (MALME-3M melanoma): 14.2 nM

COC(=O)[C@]12CC[C@@H](C)[C@H](C)[C@@H]1C1=CC[C@@H]3[C@@]4(C)C(C=O)=C[C@@](C)(COS(C)(=O)=O)C4=CC[C@@]3(C)[C@]1(C)CC2
GI50 (A549 NSCLC): 468 nM
TGI (A549 NSCLC): 1920 nM
GI50 (SNB-75 CNS): 161 nM
TGI (SNB-75 CNS): 610 nM
GI50 (EKVX NSCLC): 315 nM
TGI (EKVX NSCLC): 1340 nM
GI50 (SF-268 CNS): 248 nM
TGI (SF-268 CNS): 721 nM
GI50 (MDA-MB-231 breast): 232 nM
TGI (MDA-MB-231 breast): 578 nM
GI50 (LOX IMVI melanoma): 169 nM
TGI (LOX IMVI melanoma): 316 nM
GI50 (K-562 leukemia): 308 nM
TGI (K-562 leukemia): 1170 nM
GI50 (MCF7 breast): 265 nM
TGI (MCF7 breast): 1370 nM
GI50 (SF-539 CNS): 207 nM
TGI (SF-539 CNS): 451 nM
GI50 (RXF 393 renal): 170 nM
TGI (RXF 393 renal): 358 nM
GI50 (DU-145 prostate): 317 nM
TGI (DU-145 prostate): 1060 nM
GI50 (OVCAR-3 ovarian): 183 nM
TGI (OVCAR-3 ovarian): 359 nM
GI50 (HCC-2998 colon): 204 nM
TGI (HCC-2998 colon): 466 nM
GI50 (COLO 205 colon): 223 nM
TGI (COLO 205 colon): 454 nM
GI50 (SW-620 colon): 209 nM
TGI (SW-620 colon): 484 nM
GI50 (SNB-19 CNS): 480 nM
TGI (SNB-19 CNS): 1960 nM
GI50 (NCI/ADR-RES ovarian): 325 nM
TGI (NCI/ADR-RES ovarian): 1970 nM
GI50 (ACHN renal): 171 nM
TGI (ACHN renal): 317 nM
GI50 (T-47D breast): 158 nM
TGI (T-47D breast): 470 nM
GI50 (OVCAR-5 ovarian): 215 nM
TGI (OVCAR-5 ovarian): 570 nM
GI50 (U251 CNS): 230 nM
TGI (U251 CNS): 606 nM
GI50 (NCI-H522 lung): 178 nM
TGI (NCI-H522 lung): 371 nM
GI50 (A498 renal): 193 nM
TGI (A498 renal): 1130 nM
GI50 (HS 578T breast): 234 nM
TGI (HS 578T breast): 711 nM
GI50 (786-0 renal): 189 nM
TGI (786-0 renal): 415 nM
GI50 (M14 melanoma): 213 nM
TGI (M14 melanoma): 486 nM
GI50 (RPMI-8226 leukemia): 263 nM
TGI (RPMI-8226 leukemia): 1100 nM
GI50 (UACC-62 melanoma): 200 nM
TGI (UACC-62 melanoma): 551 nM
GI50 (HCT-116 colon): 160 nM
TGI (HCT-116 colon): 321 nM
GI50 (BT-549 breast): 211 nM
TGI (BT-549 breast): 630 nM
GI50 (SK-MEL-28 melanoma): 198 nM
TGI (SK-MEL-28 melanoma): 415 nM
GI50 (OVCAR-8 ovarian): 332 nM
TGI (OVCAR-8 ovarian): 1620 nM
GI50 (SK-MEL-2 melanoma): 226 nM
TGI (SK-MEL-2 melanoma): 497 nM
GI50 (HL-60(TB) leukemia): 276 nM
TGI (HL-60(TB) leukemia): 835 nM
GI50 (NCI-H226 lung): 232 nM
TGI (NCI-H226 lung): 635 nM
GI50 (TK-10 renal): 211 nM
TGI (TK-10 renal): 512 nM
GI50 (MDA-MB-435): 177 nM
TGI (MDA-MB-435): 364 nM
GI50 (SF-295 CNS): 296 nM
TGI (SF-295 CNS): 1260 nM
GI50 (SK-MEL-5 melanoma): 175 nM
TGI (SK-MEL-5 melanoma): 333 nM
GI50 (NCI-H460 lung): 226 nM
TGI (NCI-H460 lung): 534 nM
GI50 (UO-31 renal): 158 nM
TGI (UO-31 renal): 321 nM
GI50 (HOP-62 NSCLC): 303 nM
TGI (HOP-62 NSCLC): 1170 nM
GI50 (NCI-H23 lung): 303 nM
TGI (NCI-H23 lung): 1340 nM
GI50 (HOP-92 NSCLC): 197 nM
TGI (HOP-92 NSCLC): 550 nM
GI50 (IGROV1 ovarian): 318 nM
TGI (IGROV1 ovarian): 1060 nM
GI50 (HT29 colon): 144 nM
TGI (HT29 colon): 370 nM
GI50 (SN12C renal): 339 nM
TGI (SN12C renal): 1920 nM
GI50 (MOLT-4 leukemia): 244 nM
TGI (MOLT-4 leukemia): 1050 nM
GI50 (SK-OV-3 ovarian): 667 nM
TGI (SK-OV-3 ovarian): 2920 nM
GI50 (CCRF-CEM leukemia): 324 nM
TGI (CCRF-CEM leukemia): 1470 nM
GI50 (MALME-3M melanoma): 173 nM
TGI (MALME-3M melanoma): 340 nM
